Source: US20100240069A1, “Drug Discovery Assay for Modulators of HIF-Prolyl Hydroxylase Activity” (Boehringer Ingelheim International GmbH, priority 2009, published 2010)
Read-outs that look alike come from different tables or passages of the source.

Key:
[1] = tested on: recombinant rhesus HPH protein; assay: Effect of additives on activity of recombinant rhesus HPH enzyme; type: biochemical, rhesus monkey (Macaca mulatta)
rhesus HPH2 = rhesus HPH2 (Macaca mulatta, UniProt I2CX88); assay: biochemical
Experimental: (§1) More specifically, the HPH enzyme assay is conducted in a multi-well plate format. In a suitable buffer, a peptide substrate for the HPH, and a substrate for a protein-based pull down assay, and HPH enzyme are incubated for a period of time and at a temperature sufficient to allow the hydroxylation of the proline-containing substrate to occur. After the incubation period (e.g., 45 min.) the reaction is quenched by the addition of a solution containing the detection reagents. In specific embodiments, the solution comprises EDTA (2.5 mM) and the detection reagents (GST-VBC, Streptavidin-allophycocyanin and Europium-labeled anti-GST Antibody). The detection method in this assay is time-resolved fluorescent assay in which the time-resolved fluorescent signal (excitation at 330 nm; emission at 620 and 665 nm) is read on a plate reader after […] of incubation. The ratio of signal at 665 nm to 620 nm is used to calculate the amount of peptide interaction with GST-VBC as a measure of protein hydroxylation.
(§2) In an exemplary assay, the assay is conducted in a 96 or 384-well plate format. In the 384-well scale, the reaction (10 μl) contains buffer (20 mM MOPS (pH 6.5), 1.5 mM magnesium chloride, 5 mM potassium chloride, 0.1% bovine serum albumin, 1 mM TCEP, 10 μM ferrous ammonium sulfate, and 2 mM sodium ascorbate), substrate (2 μM α-ketoglutarate and 60 nM HIF-1αs peptide (biotin-[…]), enzyme (e.g. 8 nM of HPH3), and an inhibitor from a DMSO solution (1% DMSO final in the assay). After 45 min, the reaction is quenched by the addition of EDTA (2.5 mM) and the detection reagents (GST-VBC, Streptavidin-allophycocyanin and Europium-labeled anti-GST Antibody). The time-resolved fluorescent signal (excitation at 330 nm; emission at 620 and 665 nm) is read on a plate reader after 1 h of incubation. The ratio of signal at 665 nm to 620 nm is used to calculate the amount of peptide interaction with GST-VBC as a measure of protein hydroxylation.
(§3) In the assay, the biotinylated substrate is captured by the Streptavidin which is attached to allophycocyanin. The VBC interacts with the substrate and the interaction is recognized through the aid of an anti GST antibody which is labeled with europium. […] The time-resolved fluorescent signal (excitation at 330 nm; emission at 620 and 665 nm) is read on a plate reader after 1 h of incubation. The ratio of signal at 665 nm to 620 nm is used to calculate the amount of peptide interaction with GST-VBC as a measure of protein hydroxylation.
(§4) The VBC protein complex was generated by co-expression of Glutathione S-Transferase-VHL (von Hippel Lindau), elongin B and elongin C in Escherichia coli followed by purification of the complex using glutathione affinity resin and size-exclusion chromatography.

rhesus HPH1 = rhesus HPH1 (Macaca mulatta, UniProt H9FPE3, INS27EP); assay: biochemical
Experimental: as §1, §2, §3, §4

rhesus HPH3 = target: T1, rhesus HPH3 (Macaca mulatta, UniProt H9FPE4); assay: TR-FRET HPH enzyme assay (VBC recognition of hydroxylated peptide), HPH3; type: biochemical, rhesus monkey (Macaca mulatta); conditions: recombinant rhesus HPH3, inhibitory activity
T1 construct: fused on or other part: GST tag, N- or C-terminal, for purification
Experimental: More specifically, the HPH enzyme assay is conducted in a multi-well plate format. In a suitable buffer, a peptide substrate for the HPH, and a substrate for a protein-based pull down assay, and HPH enzyme are incubated for a period of time and at a temperature sufficient to allow the hydroxylation of the proline-containing substrate to occur. After the incubation period (e.g., 45 min.) the reaction is quenched by the addition of a solution containing the detection reagents. In specific embodiments, the solution comprises EDTA (2.5 mM) and the detection reagents (GST-VBC, Streptavidin-allophycocyanin and Europium-labeled anti-GST Antibody). The detection method in this assay is time-resolved fluorescent assay in which the time-resolved fluorescent signal (excitation at 330 nm; emission at 620 and 665 nm) is read on a plate reader after 1 of incubation. The ratio of signal at 665 nm to 620 nm is used to calculate the amount of peptide interaction with GST-VBC as a measure of protein hydroxylation.
In an exemplary assay, the assay is conducted in a 96 or 384-well plate format. […]
In the assay, the biotinylated substrate is captured by the Streptavidin which is attached to allophycocyanin. […] The time-resolved fluorescent signal (excitation at 330 nm; emission at 620 and 665 nm) is read on a plate reader after 1 h of incubation. […]

rhesus HPH1, sequence (H9FPE3 1-405, stated change not applied): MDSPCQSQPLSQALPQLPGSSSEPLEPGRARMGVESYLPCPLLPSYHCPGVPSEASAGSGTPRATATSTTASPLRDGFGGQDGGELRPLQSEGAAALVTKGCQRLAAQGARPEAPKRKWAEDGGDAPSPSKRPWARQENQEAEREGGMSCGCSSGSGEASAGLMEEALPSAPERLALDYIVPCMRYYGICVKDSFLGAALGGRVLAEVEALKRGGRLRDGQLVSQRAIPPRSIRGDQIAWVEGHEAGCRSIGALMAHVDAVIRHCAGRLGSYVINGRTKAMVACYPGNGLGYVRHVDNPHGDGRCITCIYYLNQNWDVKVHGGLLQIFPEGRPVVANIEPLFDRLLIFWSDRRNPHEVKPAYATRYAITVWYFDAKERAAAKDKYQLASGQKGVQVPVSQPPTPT
rhesus HPH2, sequence (I2CX88 1-426): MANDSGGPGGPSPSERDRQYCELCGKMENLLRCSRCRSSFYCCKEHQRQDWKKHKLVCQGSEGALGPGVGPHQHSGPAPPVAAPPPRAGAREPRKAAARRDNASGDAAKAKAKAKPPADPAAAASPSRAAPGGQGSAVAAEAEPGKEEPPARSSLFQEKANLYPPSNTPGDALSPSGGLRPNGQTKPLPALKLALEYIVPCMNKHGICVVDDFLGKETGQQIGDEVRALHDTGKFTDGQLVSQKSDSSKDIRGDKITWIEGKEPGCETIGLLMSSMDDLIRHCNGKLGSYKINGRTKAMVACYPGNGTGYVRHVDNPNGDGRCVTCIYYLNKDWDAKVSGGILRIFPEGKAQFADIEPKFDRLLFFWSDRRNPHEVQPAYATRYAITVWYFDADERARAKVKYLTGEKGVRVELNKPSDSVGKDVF

## [Cl-].[Cl-].[Co+2] [CoCl2]
[1]
  effect on enzyme activity: inhibited enzyme activity

## NNc1nncc2ccccc12 [Hydralazine]
Rhesus HPH2
  IC50: 320 µM
Rhesus HPH1
  IC50: 400 µM

## O=C(O)CCC(=O)O [Succinate]
Rhesus HPH2; read-out: IC50 HPH2, recombinant rhesus HPH2, inhibitory activity
  IC50: 380 µM
Rhesus HPH1; read-out: IC50 HPH1, recombinant rhesus HPH1, inhibitory activity
  IC50: 200 µM
Rhesus HPH3
  IC50: 80 µM

## [Fe+2] [ferrous iron]
[1]; addition to recombinant rhesus HPH enzyme, isoform not stated
  effect on enzyme activity: increased the activity of the enzyme
